Measured values as given in US7759350B2, “Pyrimidine carboxamides” (Orchid Research Laboratories Ltd., priority 2005, dated 2010).

Experiments:
MCF-7 = experiment: Anti-cancer screen (MTT), MCF-7; type: cell-based
Description: [The source words this procedure for another cell line and reports this cell line under the same test.] (§1) Experimental drugs are screened for anti-cancer activity in three cell lines for their GI50, TGI and LC50 values (using five concentrations for each compound). The cell lines are maintained in DMEM containing 10% fetal bovine serum. 96 well microtiter plates are inoculated with cells in 100 μL for 24 h at 37° C., 5% CO2, 95% air and 100% relative humidity. 5000 HCT116 cells/well, 5000 NCIH460 cells/well, 10000 U251 cells/well and 5000 MDAMB231 cells/well are plated. A separate plate with these cell lines is also inoculated to determine cell viability before the addition of the compounds (T0).
(§2) Following 24 hours incubation, experimental drugs are added to the 96 well plates. Each plate contains one of the above cell lines and the following in triplicate: five different concentrations (0.01, 0.1, 1, 10 and 100 μM) of four different compounds, appropriate dilutions of a cytotoxic standard and control (untreated) wells. Compounds are dissolved in dimethylsulfoxide (DMSO) to make 20 mM stock solutions on the day of drug addition and frozen at −20° C. Serial dilutions of these 20 mM stock solutions are made in complete growth medium such that 100 μL of these drug solutions in medium, of final concentrations equaling 0.01, 0.1, 1, 10 and 100 μM can be added to the cells in triplicate. Standard drugs whose anti-cancer activity has been well documented and which are regularly used are doxorubicin and SAHA.
(§3) Cells are incubated with compounds for 48 hours followed by the addition of 10 μL 3-(4,5-Dimethyl-2-thiazolyl)-2,5-diphenyl-2H-tetrazolium (MTT) solution per well and a subsequent incubation at 37° C., 5% CO2, 95% air and 100% relative humidity, protected from light. After 4 hours, well contents are aspirated carefully followed by addition of 150 μL DMSO per well. Plates are agitated to ensure solution of the formazan crystals in dimethylsulphoxide and absorbance read at 570 nm.
(§4) Percent growth is calculated for each compound's concentration relative to the control and zero measurement wells (To; viability right before compound addition). […]

NCI-H460 = experiment: Anti-cancer screen (MTT), NCI-H460; type: cell-based
Description: as §1
Following 24 hours incubation, experimental drugs are added to the 96 well plates. […] Compounds are dissolved in dimethylsulfoxide (DMSO) to make 20 mM stock solutions on the day of drug addition and frozen at −20° C. […] Standard drugs whose anti-cancer activity has been well documented and which are regularly used are doxorubicin and SAHA.
as §3
Percent growth is calculated for each compound's concentration relative to the control and zero measurement wells (To; viability right before compound addition). If a test well's O.D. value is greater than the To measurement for that cell line % Growth=(test−zero)/(control−zero)×100
If a test well's O.D. value is lower than the T0 measurement for that cell line, […]

SF-268 = experiment: Anti-cancer screen (MTT), SF-268; type: cell-based
Description: [The source words this procedure for another cell line and reports this cell line under the same test.] as §1, §2, §3, §4

COX-2 = biological target: T1, COX-2 (Homo sapiens, UniProt P35354); experiment: Human whole blood assay, COX-2 inhibition (PGE2 after LPS); type: cell-based; details: LPS stimulated
T1 construct: Fresh blood was collected in tubes containing sodium heparin by vein puncture from healthy male volunteers; endogenous in cells; host or cells: human whole blood from healthy male volunteers, stimulated with LPS
T1 sequence (P35354 18-604): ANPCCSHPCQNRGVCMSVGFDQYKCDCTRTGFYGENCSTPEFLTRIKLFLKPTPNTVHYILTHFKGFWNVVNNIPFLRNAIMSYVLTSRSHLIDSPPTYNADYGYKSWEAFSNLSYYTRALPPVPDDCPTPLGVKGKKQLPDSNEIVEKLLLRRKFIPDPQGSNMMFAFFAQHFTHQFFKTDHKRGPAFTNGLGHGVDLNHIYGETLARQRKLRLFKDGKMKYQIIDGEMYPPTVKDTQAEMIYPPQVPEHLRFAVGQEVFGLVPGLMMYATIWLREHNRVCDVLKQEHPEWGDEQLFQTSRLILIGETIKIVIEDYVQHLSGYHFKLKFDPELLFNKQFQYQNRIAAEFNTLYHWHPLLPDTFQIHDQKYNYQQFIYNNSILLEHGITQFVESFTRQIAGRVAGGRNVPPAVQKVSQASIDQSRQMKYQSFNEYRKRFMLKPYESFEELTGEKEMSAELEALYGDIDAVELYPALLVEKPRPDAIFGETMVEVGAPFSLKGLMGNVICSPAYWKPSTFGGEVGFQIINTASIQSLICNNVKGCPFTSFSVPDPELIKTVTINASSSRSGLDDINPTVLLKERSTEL
Description: Human whole blood provides a protein and cell rich milieu appropriate for the study of biochemical efficacy of anti-inflammatory compounds such as selective COX-2 inhibitors. […] This is correlating with the observation that COX-2 inhibitors have no effect on prostaglandin E2 (PGE2) production in normal blood. These inhibitors were active only after incubation of human blood with lipopolysaccharide (LPS), which induces COX-2 production in the blood.
Fresh blood was collected in tubes containing sodium heparin by vein puncture from healthy male volunteers. […] Then test compounds (at various concentrations) or vehicle were added to blood. After that blood was stimulated with LPS B: 4 (10 μg/ml) and incubated for another 18 hours at 37° C. water bath. After which the blood was centrifuged, plasma was separated and stored at −80° C. (J. Pharmacol. Exp. Ther, 271, 1705, 1994; Proc. Natl. Acad. Sci. USA., 96, 7563, 1999). The plasma was assayed for PGE2 using Cayman ELISA kit as per the procedure outlined by the manufacturer (Cayman Chemicals, Ann Arbor, USA).

MDAMB-231 = experiment: Anti-cancer screen (MTT), MDAMB-231; type: cell-based; details: Homo sapiens, MDA-MB-231, 48 hours
Description: as §1
Following 24 hours incubation, experimental drugs are added to the 96 well plates. […]
as §3, with “After 4 hours, well contents are aspirated carefully followed by addition of 150 μL DMSO per well.” left out
as §4

IL-6 = experiment: In vitro measurement of IL-6 in human PBMC; type: cell-based; details: Conc. 0.1 μM, LPS
Description: (§5) In vitro Measurement of Interleukin-6 (IL-6) & Interleukin-1β (IL1β)
(§6) This assay determines the effect of test compounds on the production of IL-6 and IL1β in human PBMC (Physiol. Res. 52: 593-598, 2003). Compounds were tested for their ability to inhibit the activity of IL-6 and IL1β in human PBMC. PBMC were isolated from blood using BD Vacutainer CPT™ Cell preparation tube (BD Bio Science) and suspended in RPMI medium. The test compounds were preincubated with PBMC (0.5 million/incubation well) for 15 minutes at 37° C. and then stimulated with Lipopolysaccharide (Escherichia coli: B4; 1 μg/ml) for 18 hours at 37° C. in 5% CO2. The levels of IL-6 and IL1β in cell culture medium were estimated using enzyme linked Immunosorbent assay performed in a 96 well format as per the procedure of the manufacturer (R&D Systems, Inc. 614 McKinley Place Nebr., Minneapolis, Minn. 55413, USA).

IL-1β = experiment: In vitro measurement of IL-1β in human PBMC; type: cell-based; details: Conc. 0.1 μM, LPS
Description: as §5, §6

[1] = test system: Carrageenan induced paw edema in rat; experiment: Carrageenan induced paw edema test in rat; type: in vivo; details: 5 mg/kg oral; male wistar rats; 3 hours after carrageenan
Description: Carrageenan Induced Paw Edema Test in Rat
The carrageenan paw edema test was performed as described by Winter et al (Proc. Soc. Exp. Biol. Med, 111, 544, 1962). Male wistar rats were selected with body weights equivalent within each group. The rats were fasted for eighteen hours with free access to water. The rats were dosed orally with the test compound suspended in vehicle containing 0.25% carboxymethylcellulose and 0.5% Tween 80. The control rats were administered with vehicle alone. After an hour, the rats were injected with 0.1 ml of 1% Carrageenan solution in 0.9% saline into the sub-plantar surface of the right hind paw. Paw volume was measured using digital plethysmograph before and after 3 hours of carrageenan injection. The average of foot swelling in drug treated animals was compared with that of control animals. Anti-inflammatory activity was expressed as the percentage inhibition of edema compared with control group [Arzneim-Forsch/Drug Res., 43 (I), 1,44-50,1993; Otterness and Bliven, Laboratory Models for Testing NSAIDs, In Non-Steroidal Anti-Inflammatory Drugs, (J. Lombardino, ed. 1985)].

## CNc1nc(-c2ccc(SC)cc2)nc(SC)c1C(=O)Nc1ccc(C)c(C)c1 [Example 9, N-(3,4-Dimethylphenyl)-4-(methylamino)-6-(methylthio)-2-[4-(methylthio)phenyl]pyrimidine-5-carboxamide]
MCF-7; Conc. 100 μM
  Percentage growth Breast MCF-7: 6%
NCI-H460; Conc. 100 μM
  Percentage growth Lung NCI-H460: 0%
SF-268; Conc. 100 μM
  Percentage growth CNS SF-268: 5%
COX-2; Conc. 10 μM
  inhibition at 10 µM: 29.2%

## CNc1nc(-c2ccncc2)nc(SC)c1C(=O)Nc1ccc(C)c(C)c1 [Example 25, N-(3,4-Dimethylphenyl)-4-(methylamino)-6-(methylthio)-2-pyridin-4-ylpyrimidine-5-carboxamide]
NCI-H460; Homo sapiens, NCI-H460, 48 hours, MTT
  GI50: 5500 nM
MDAMB-231
  GI50: 100 nM

## CNc1nc(-c2ccc(SC)cc2)nc(SC)c1C(=O)Nc1ccc(C)cc1 [Example 5, 4-(Methylamino)-N-(4-methylphenyl)-6-(methylthio)-2-[4-(methylthio)phenyl]pyrimidine-5-carboxamide]
MCF-7; Conc. 50 μM
  Percentage growth Breast MCF-7: 160%
NCI-H460; Conc. 50 μM
  Percentage growth Lung NCI-H460: 48%
IL-6
  inhibition at 0.1 µM: 14.9%
SF-268; Conc. 50 μM
  Percentage growth CNS SF-268: 106%
COX-2; Conc. 0.25 μM
  inhibition at 0.25 µM: 36.8%
IL-1β
  IL-1β Inhibition (%): Not active
[1]
  Inhibition of edema (%) at 5 mg/kg: 53.07%
